{
  "source": "patent US20090069241A1",
  "about": "“Compositions and Methods for Use of Pigment Epithelial Derived Factor (PEDF) Peptide Fragments” (Yale University, priority 2006, published 2009)",
  "type_in_all_cases": "in vivo, C57/B16 mice",
  "key": {"[1]": {"system": "inner retina (INL, IPL, retinal ganglion cell layer)", "assay": "Transient retinal ischemia-reperfusion injury with intravitreous injection; morphometric analysis of inner retina", "parameters": "thickness of the INL compared with non-ischemia control / thickness of the IPL compared with non-ischemia control / surviving cells in the RGC layer compared with non-ischemia control: concentration or dose not given beside the values", "details": "for surviving cells in the RGC layer compared with non-ischemia control / thickness of the INL compared with non-ischemia control / thickness of the IPL compared with non-ischemia control: single intravitreous injection immediately after ischemia", "method": "Induction of transient retinal ischemia in C57/B16 mice: Animal experiments were conducted in accordance with ARVO guidelines and were approved by the Animal Care and Use Committee of Yale University School of Medicine. Transient retinal ischemia was induced in one eye and the contralateral eye served as control. During the operation and recovery period, animals were placed on water heating pads at 37° C. […] Briefly, animals were anesthetized by i.p. injection of a mixture of 100 mg/kg Ketamine+10 mg/kg Xylazine. […] The anterior chambers were cannulated in fully anesthetized animals with a 30-gauge infusion needle connected by PE10 polyethylene tubing and IV set to a physiological saline reservoir. The intraocular pressure (IOP) of the cannulated eye was raised to 120 mmHg for 60 minutes by elevating the saline reservoir. Retinal ischemia was confirmed by direct microscopic observation of whitening of the fundus. The reperfusion was confirmed visually when needle was withdrawn from the anterior chamber. One group of animals was treated with Vetropolycin® ophthalmic ointment (Pharmaderm, Melville, N. Y.) on the ischemic eyes and allowed to recover for 24 hours, 48 hours, 7 days and 14 days before sacrifice. Other groups were kept for intravitreous injections of the PEDF and PEDF peptides.\nIntravitreous injection of PEDF, PEDF peptides and encapsulated PEDF peptide: One group of animals remained uninjected to monitor ischemic damage. All other groups received intravitreal injections, which were performed under an ophthalmic microscope. […] Intravitreous injection was performed with 30-gauge beveled needle attached to PE10 polyethylene tubing and a 10 μl syringe (Hamilton, Reno, Nev.). The injections were performed through the sclera, approximately 1 mm behind the limbus. The needle remained in the vitreous cavity for 30 seconds after injection then gently withdrawn. Control groups were injected with 1 μl PBS, 1 μl control peptide (1 μg/μl), or blank nanospheres (0.1 mg/μl). […] Vetropolycin® ointment was applied to the injected eyes and animals were allowed to recover for 48 hours or 7 days before sacrifice.\nPreparation of retinal tissue: at designated time points, mice were sacrificed by carbon dioxide inhalation followed by, in some cases, cervical dislocation. The eyes were enucleated, fixed in 4% paraformaldehyde for 24 hours, washed with PBS and embedded in paraffin. Five (5) μm thick sections that included the optic nerve were collected. Sections were processed for TUNEL, immunocytochemistry, or histochemical staining with hematoxylin and eosin (Surgipath, Ltd, Richmond, Ill.) using standard methods.\nMorphologic and Morphometric Analysis: For each eye, three sections, which included the optic disk and were spaced at least 20 μm apart, were used for morphological analysis. The fields analyzed were 4×250 μm zones sampled from all retinal eccentricities. These zones were 500 μm away from the edge of optic disk or the ora serrata. The average measurement of these 4 zones was used for statistical analysis. The mean thickness of inner nuclear layer (INL) and inner plexiform layer (IPL) was measured using Axiovision3.1 software (Carl Zeiss MicroImaging, Inc., Thornwood, N.Y.). Total surviving cells in the retinal ganglion cell layer at the same locations were counted using light microscopy.\nStatistical analysis: Twelve fields per retina were analyzed for each treatment, and a total of 72 fields were used. For statistical analysis, one-way analysis of variance (ANOVA) and Fisher tests were performed; p<0.05 was taken as significant. Data are presented as means and standard deviations."}, "STAT3": {"system": "STAT3", "assay": "Western blot of phosphorylated STAT3 in retinas after ischemic injury", "details": "48 hours after ischemic injury; control retinas: detected only at 24 hours", "method": "(§1) Induction of transient retinal ischemia in C57/B16 mice: Animal experiments were conducted in accordance with ARVO guidelines and were approved by the Animal Care and Use Committee of Yale University School of Medicine. Transient retinal ischemia was induced in one eye and the contralateral eye served as control. During the operation and recovery period, animals were placed on water heating pads at 37° C. Eighty-one 10-14 weeks male C57/B16 mice (Charles River Laboratories, Wilmington, Mass., weighing […]) were used in this experiment. To induce retinal ischemia, a previously established technique with some modifications was used (Hughes, 1991, Exp Eye Res. 53(5):573-582; Buchi et al., 1991, Opthalmologica 203 (3): 138-147). Briefly, animals were anesthetized by i.p. injection of a mixture of 100 mg/kg Ketamine+10 mg/kg Xylazine. […]\n(§2) The effect of PEDF82-121 on STAT3 and Erk after ischemic injury was examined by Western blot. In control retinas subjected to ischemic injury, phosphorylated STAT3 was detected at 24 hours but not at 1 hour, 4 hours, 12 hours or 48 hours after ischemic injury. […] In control retinas, phosphorylated Erk was detect strongly at 4 hours and 12 hours after ischemic injury but was barely detectable at 24 hours and not detected at 48 hours. […]"}, "Erk": {"system": "Erk", "assay": "Western blot of phosphorylated Erk in retinas after ischemic injury", "details": "48 hours after ischemic injury; control retinas: not detected at 48 hours", "method": "as §1, §2"}, "GFAP": {"system": "GFAP", "assay": "GFAP immunocytochemical labeling of Müller glial cells after transient ischemia", "method": "Induction of transient retinal ischemia in C57/B16 mice: Animal experiments were conducted in accordance with ARVO guidelines and were approved by the Animal Care and Use Committee of Yale University School of Medicine. Transient retinal ischemia was induced in one eye and the contralateral eye served as control. During the operation and recovery period, animals were placed on water heating pads at 37° C. Eighty-one 10-14 weeks male C57/B16 mice (Charles River Laboratories, Wilmington, Mass., weighing […]) were used in this experiment. To induce retinal ischemia, a previously established technique with some modifications was used (Hughes, 1991, Exp Eye Res. 53(5):573-582; Buchi et al., 1991, Opthalmologica 203 (3): 138-147). Briefly, animals were anesthetized by i.p. injection of a mixture of 100 mg/kg Ketamine+10 mg/kg Xylazine. The corneas were topically anesthetized with 0.5% proparacaine hydrochloride (Bausch & Lomb Pharmaceuticals, Inc., Tampa, Fla.), and the pupils dilated with 2.5% phenylephrine (Bausch & Lomb Pharmaceuticals, Inc., Tampa, Fla.). The anterior chambers were cannulated in fully anesthetized animals with a 30-gauge infusion needle connected by PE10 polyethylene tubing and IV set to a physiological saline reservoir. The intraocular pressure (IOP) of the cannulated eye was raised to 120 mmHg for 60 minutes by elevating the saline reservoir. Retinal ischemia was confirmed by direct microscopic observation of whitening of the fundus. The reperfusion was confirmed visually when needle was withdrawn from the anterior chamber. One group of animals was treated with Vetropolycin® ophthalmic ointment (Pharmaderm, Melville, N. Y.) on the ischemic eyes and allowed to recover for 24 hours, 48 hours, 7 days and 14 days before sacrifice. Other groups were kept for intravitreous injections of the PEDF and PEDF peptides.\nIntravitreous injection of PEDF, PEDF peptides and encapsulated PEDF peptide: One group of animals remained uninjected to monitor ischemic damage. All other groups received intravitreal injections, which were performed under an ophthalmic microscope. Experimental groups received 1 μl native PEDF protein (1 μg/μl), PEDF82-121 peptide (1 μg/μl), PEDF76-95 peptide (1 μg/μl), PEDF91-110 peptide (1 μg/μl), PEDF106-125 peptide (1 μg/μl) or PLGA PEDF82-121 nanospheres (0.1 mg/μl, less than 1.6 μg PEDF82-121 peptide when fully released) immediately after the end of the transient ischemia. Intravitreous injection was performed with 30-gauge beveled needle attached to PE10 polyethylene tubing and a 10 μl syringe (Hamilton, Reno, Nev.). The injections were performed through the sclera, approximately 1 mm behind the limbus. The needle remained in the vitreous cavity for 30 seconds after injection then gently withdrawn. […]"}, "[2]": {"details": "48 hours after ischemia reperfusion"}},
  "data": [
    {"substance": "PEDF82-121: residues 82 to 121 of human PEDF, PLSVATALSALSLGAEQRTESIIHRALYYDLISSPDIHGT (SEQ ID NO: 3) ((1)..(40) Residues 82-121 of human PEDF; listed as Homo sapiens)", "values": [
      {"measurement": "surviving cells in the RGC layer compared with non-ischemia control", "setting": "[1]; [2]", "value": 80.1, "unit": "%"},
      {"measurement": "thickness of the INL compared with non-ischemia control", "setting": "[1]; [2]", "value": 100, "unit": "%"},
      {"measurement": "thickness of the IPL compared with non-ischemia control", "setting": "[1]; [2]", "value": 100, "unit": "%"},
      {"measurement": "protection of the retinal ganglion cell layer (in words)", "setting": "[1]; 48 hours post ischemia, versus PBS or PEDF136-155", "value": "substantial protection"},
      {"measurement": "surviving cells in the RGC layer compared with non-ischemia control", "setting": "[1]; 7 days after injury", "value": 56.8, "unit": "%"},
      {"measurement": "thickness of the INL compared with non-ischemia control", "setting": "[1]; 7 days after injury", "value": 72.8, "unit": "%"},
      {"measurement": "thickness of the IPL compared with non-ischemia control", "setting": "[1]; 7 days after injury", "value": 62.7, "unit": "%"},
      {"measurement": "protection of the retinal ganglion cell layer (in words)", "setting": "[1]; 7 days post ischemia, free single bolus or nanospheres", "value": "less"},
      {"measurement": "IPL thickness after ischemic injury (in words)", "setting": "[1]; compared to PBS injected controls, time not stated", "value": "maintained the thickness of the IPL"},
      {"measurement": "presence of phosphorylated STAT3", "setting": "STAT3", "value": "also detected at 48 hours"},
      {"measurement": "presence of phosphorylated Erk", "setting": "Erk", "value": "strongly detected at 48 hours"},
      {"measurement": "GFAP labeling compared to PBS injections", "setting": "GFAP; 48 hours after transient ischemia", "value": "less GFAP labeling"},
      {"measurement": "GFAP staining", "setting": "GFAP; 7 days after injury", "value": "very similar staining"}
    ]}
  ]
}
